Target: Prostacyclin synthase (Sus scrofa)
Test: Inhibition of PGI-2 synthetase from porcine aorta

| IC50 [µM] | SMILES |
| --- | --- |
| > 100 | CC(C)c1c(Cn2ccnc2)c2ccccc2n1CCC(=O)O [3-(3-Imidazol-1-ylmethyl-2-isopropyl-indol-1-yl)-propionic acid] |
| > 100 | Cc1c(Cn2ccnc2)c2ccccc2n1/C=C/C(=O)O [3-(3-Imidazol-1-ylmethyl-2-methyl-indol-1-yl)-acrylic acid] |
| > 100 | O=C(O)CCn1cc(Cn2ccnc2)c2ccc(C(F)(F)F)cc21 [3-(3-Imidazol-1-ylmethyl-6-trifluoromethyl-indol-1-yl)-propionic acid] |
| > 100 | O=C(O)CCn1cc(Cn2ccnc2)c2cc(Br)ccc21 [3-(5-Bromo-3-imidazol-1-ylmethyl-indol-1-yl)-propionic acid] |
| > 100 | O=C(O)CCn1cc(Cn2ccnc2)c2cc(Cl)ccc21 [3-(5-Chloro-3-imidazol-1-ylmethyl-indol-1-yl)-propionic acid] |
| > 100 | CN(C)c1ccc2c(c1)c(Cn1ccnc1)cn2CCC(=O)O [3-(5-Dimethylamino-3-imidazol-1-ylmethyl-indol-1-yl)-propionic acid] |
